Consider two compounds from patent US20200399238A1, “THERAPEUTIC AURONES” (MIDDLE TENNESSEE STATE UNIVERSITY, priority 2016, published 2020).

The test system of assay [1] is C. tropicalis (ATCC strain 750). Briefly: Antifungal microdilution broth assay (PrestoBlue), C. tropicalis. The class given is cell-based. As to conditions: Candida tropicalis, ATCC750; Table 5. As to the method: Sigma-Aldrich) was used as the base medium for testing. […] solution of morpholinepropanesulfonic acid (MOPS; Sigma-Aldrich) was added to the RPMI to a final concentration of 0.165 M for buffering (RPMI-MOPS). This medium was adjusted to a pH of 7.0 with 10 M NaOH and filter sterilized. C. albicans (ATCC strain 90028), C. [NT] strain 66032), and C. tropicalis (ATCC strain 750) were cultured on potato dextrose agar (Sigma-Aldrich) plates, and incubated at 35° C. for 24 hours. For antifungal testing, overnight colonies were adjusted to 1.5×10^3 cells/mL, hereafter referred to as the test inoculum. […] Reduction of the compound from resazurin to resorufin is proportional to the number of metabolically active cells and can be quantified by measuring relative fluorescence units (RFUs). […] PrestoBlue was added to a final concentration of 10% in each well and fluorescence read at 560 nm excitation and 590 nm emission, per manufacturer instructions, using a SpectraMax M2e spectrophotometer (Molecular Devices, LLC, Sunnyvale, Calif.). […] The calculated Z', as described below, was compared to RFU readings and the optimal PrestoBlue incubation time was determined to be 75 minutes. IC50 determination was calculated using GraphPad Prism version 7.01 for Windows (GraphPad Software, Inc., La Jolla, Calif.) from the RFUs at dilution points. […]
(In broth dilution the organism is exposed to a series of concentrations in liquid medium.)

Assay [2] deals with Trypanosoma brucei brucei 427 cells. Put plainly: T. brucei culture and assay (PrestoBlue). The class given is cell-based. As to conditions: Trypanosoma brucei; Table 1; mean of 2(+) independent trials; read-out: IC50 T. brucei.
Another assay concerns IL-1β. Put plainly: Cytokine response by ELISA, IL-1β. The class given is cell-based, human. As to conditions: LPS-stimulated THP-1, ELISA. As to the method: Dexamethasone is a synthetic glucocorticoid that suppresses LPS-induced pro-inflammatory cytokine expression and was used as a control (Abraham, Lawrence et al. 2006). Supernatants were collected for human cytokine ELISAs and the manufacturer's protocol was followed to assess the cytokine response. Cells remaining after the supernatant collection were tested for relative viability by Alamar Blue cytotoxicity assay as previously described.
A general note: In an ELISA, binding on a coated surface is turned into a signal by an enzyme label.

SMILES strings stand for the structures.

In the case of `COc1ccc(/C=C2\Oc3c(ccc(O)c3O)C2=O)cc1O` [Aurone 1009, (Z)-6,7-dihydroxy-2-(3-hydroxy-4-methoxybenzylidene)benzofuran-3(2H)-one], the IC50 (usually the concentration that inhibits the measured activity by half) in assay [1] is 10 µM; in assay [2], 18.8 µM.

With `O=C1/C(=C/c2ccc(CO)o2)Oc2ccccc21` [aurone 1], the “reduction of IL-1β expression” value with IL-1β turned out to be 98%.
